*1 amine or outer side, *2 acyl side, *3 side chain or, on linkers, in order; H or OH if unused. Where a SMILES comes first, the peptide text is derived from it. Side-chain parts run from the residue outwards. [ ]: non-standard residue; d: D form. The star is where a group is joined. γGlu = O=C(O)[C@H](CCC(=O)[*:2])N[*:1]; Palmitoyl = CCCCCCCCCCCCCCCC(=O)*; Aib = CC(C)(N)C(=O)O
What was measured:
Type in all cases: cell-based
Conditions in all cases: Table 7; cAMP formation
[1] = target: T1, human GLP-1 receptor (hGLP-1 R) (Homo sapiens, UniProt P43220); assay: cAMP response of HEK-293 cells stably expressing human GLP-1 receptor (HTRF)
T1 construct: expressed in transfected cells
T1 sequence (P43220 24-463): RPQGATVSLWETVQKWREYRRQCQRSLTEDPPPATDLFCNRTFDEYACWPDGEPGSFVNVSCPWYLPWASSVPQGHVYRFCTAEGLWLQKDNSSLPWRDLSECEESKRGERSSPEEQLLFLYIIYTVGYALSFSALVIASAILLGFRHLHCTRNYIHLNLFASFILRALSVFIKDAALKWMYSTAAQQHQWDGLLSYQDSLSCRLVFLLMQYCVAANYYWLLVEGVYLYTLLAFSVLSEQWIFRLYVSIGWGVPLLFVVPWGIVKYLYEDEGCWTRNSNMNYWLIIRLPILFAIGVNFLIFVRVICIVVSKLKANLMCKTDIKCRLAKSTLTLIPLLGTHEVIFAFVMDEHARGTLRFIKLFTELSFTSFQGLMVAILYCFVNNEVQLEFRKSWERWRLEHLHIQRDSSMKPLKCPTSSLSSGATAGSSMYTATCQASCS
Procedure, shortened: (§1)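 Cells grown overnight in DMEM/10% FBS, detached with accutase, resuspended in HBSS with 20 mM HEPES, 0.1% BSA and 2 mM IBMX at 400000 cells/ml. Test compound added and incubated 30 minutes at room temperature; cellular cAMP then measured by HTRF.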

[2] = target: T2, human GIP receptor (hGIP R) (Homo sapiens, UniProt P48546); assay: cAMP response of HEK-293 cells stably expressing human GIP receptor (HTRF)
T2 construct: expressed in transfected cells
T2 sequence (P48546 22-466): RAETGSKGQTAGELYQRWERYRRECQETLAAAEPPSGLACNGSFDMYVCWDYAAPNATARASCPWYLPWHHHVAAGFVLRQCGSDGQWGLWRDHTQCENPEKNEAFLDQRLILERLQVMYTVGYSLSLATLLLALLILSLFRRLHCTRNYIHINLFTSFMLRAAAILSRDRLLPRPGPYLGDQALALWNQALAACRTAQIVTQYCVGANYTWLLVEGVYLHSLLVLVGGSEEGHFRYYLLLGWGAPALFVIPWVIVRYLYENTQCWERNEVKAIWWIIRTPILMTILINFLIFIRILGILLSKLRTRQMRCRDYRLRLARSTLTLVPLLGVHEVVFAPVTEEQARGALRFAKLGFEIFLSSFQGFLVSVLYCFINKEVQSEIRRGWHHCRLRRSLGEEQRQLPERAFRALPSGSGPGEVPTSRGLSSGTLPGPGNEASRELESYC
Procedure, shortened: as §1

[3] = target: T3, human glucagon receptor (hGLUC R) (Homo sapiens, UniProt P47871); assay: cAMP response of HEK-293 cells stably expressing human glucagon receptor (HTRF)
T3 construct: expressed in transfected cells
T3 sequence (P47871 26-477): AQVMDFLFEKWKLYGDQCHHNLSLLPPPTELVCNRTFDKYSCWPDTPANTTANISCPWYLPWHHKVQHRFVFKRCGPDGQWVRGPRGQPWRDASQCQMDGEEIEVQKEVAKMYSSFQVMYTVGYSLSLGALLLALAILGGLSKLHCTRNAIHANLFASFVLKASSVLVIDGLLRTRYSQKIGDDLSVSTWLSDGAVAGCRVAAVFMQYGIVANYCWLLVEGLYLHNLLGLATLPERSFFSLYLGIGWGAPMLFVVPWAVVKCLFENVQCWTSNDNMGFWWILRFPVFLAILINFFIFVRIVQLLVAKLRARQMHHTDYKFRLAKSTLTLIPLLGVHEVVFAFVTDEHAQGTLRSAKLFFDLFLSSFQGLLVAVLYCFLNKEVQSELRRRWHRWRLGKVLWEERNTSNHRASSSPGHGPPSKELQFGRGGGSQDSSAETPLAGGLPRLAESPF
Procedure, shortened: as §1

SMILES | EC50 [1] | EC50 [2] | EC50 [3]
CCCCCCCCCCCCCCCC(=O)N[C@@H](CCC(=O)NCCCC[C@H](NC(=O)[C@H](CCC(N)=O)NC(=O)[C@@H](NC(=O)[C@H](CO)NC(=O)[C@H](CC(C)C)NC(=O)[C@H](CC(=O)O)NC(=O)[C@H](CO)NC(=O)[C@@H](NC(=O)[C@H](Cc1ccccc1)NC(=O)[C@@H](NC(=O)CNC(=O)[C@H](CCC(=O)O)NC(=O)C(C)(C)NC(=O)[C@@H](N)Cc1ccc(O)cc1)[C@@H](C)O)[C@@H](C)O)[C@@H](C)CC)C(=O)N[C@@H](CCC(=O)O)C(=O)N[C@@H](CCC(=O)O)C(=O)N[C@@H](CCCNC(=N)N)C(=O)N[C@@H](C)C(=O)N[C@@H](C)C(=O)N[C@@H](Cc1c[nH]cn1)C(=O)N[C@@H](CCC(=O)O)C(=O)N[C@@H](Cc1ccccc1)C(=O)N[C@H](C(=O)N[C@@H](CCC(=O)O)C(=O)N[C@@H](Cc1c[nH]c2ccccc12)C(=O)N[C@@H](CC(C)C)C(=O)N[C@@H](CCCCN)C(=O)N[C@@H](CCCNC(=N)N)C(=O)NC(C)(C)C(=O)NCC(=O)N1CCC[C@H]1C(=O)N[C@@H](CO)C(=O)N[C@@H](CO)C(=O)NCC(=O)N[C@@H](C)C(=O)N1CCC[C@H]1C(=O)N1CCC[C@H]1C(=O)N1CCC[C@H]1C(=O)N[C@@H](CO)C(=O)N[C@@H](CCCCN)C(N)=O)[C@@H](C)CC)C(=O)O [SEQ ID NO: 57, Y-Aib-E-G-T-F-T-S-D-L-S-I-Q-K(yE-x53)-E-E-R-A-A-H-E-F-I-E-W-L-K-R-Aib-G-P-S-S-G-A-P-P-P-S-K-NH2] | 0.0071 nM | 0.0157 nM | 14.4 nM
CCCCCCCCCCCCCCCC(=O)N[C@@H](CCC(=O)NCCCC[C@H](NC(=O)[C@H](CCC(N)=O)NC(=O)[C@@H](NC(=O)[C@H](CO)NC(=O)[C@H](CC(C)C)NC(=O)[C@H](CC(=O)O)NC(=O)[C@H](CO)NC(=O)[C@@H](NC(=O)[C@H](Cc1ccccc1)NC(=O)[C@@H](NC(=O)CNC(=O)[C@H](CCC(N)=O)NC(=O)C(C)(C)NC(=O)[C@@H](N)Cc1ccc(O)cc1)[C@@H](C)O)[C@@H](C)O)[C@@H](C)CC)C(=O)N[C@@H](CCC(=O)O)C(=O)N[C@@H](CCCCN)C(=O)N[C@@H](CCCNC(=N)N)C(=O)N[C@@H](C)C(=O)N[C@@H](C)C(=O)N[C@@H](Cc1c[nH]cn1)C(=O)N[C@@H](CCC(=O)O)C(=O)N[C@@H](Cc1ccccc1)C(=O)N[C@H](C(=O)N[C@@H](CCC(=O)O)C(=O)N[C@@H](Cc1c[nH]c2ccccc12)C(=O)N[C@@H](CC(C)C)C(=O)N[C@@H](CCCCN)C(=O)N[C@@H](CC(N)=O)C(=O)N[C@H](C(=O)NCC(=O)N1CCC[C@H]1C(=O)N[C@@H](CO)C(=O)N[C@@H](CO)C(=O)NCC(=O)N[C@@H](C)C(=O)N1CCC[C@H]1C(=O)N1CCC[C@H]1C(=O)N1CCC[C@H]1C(=O)N[C@@H](CO)C(N)=O)[C@@H](C)O)[C@@H](C)CC)C(=O)O [SEQ ID NO: 36, Y-Aib-Q-G-T-F-T-S-D-L-S-I-Q-K(yE-x53)-EKRAAHEFIEWLKNTGPSSGAPPPS-NH2] (H-Y[Aib]QGTFTSDLSIQK([γGlu-Palmitoyl])EKRAAHEFIEWLKNTGPSSGAPPPS-NH2) | 0.0052 nM | 0.0301 nM | 0.0395 nM
CCCCCCCCCCCCCCCC(=O)N[C@@H](CCC(=O)NCCCC[C@H](NC(=O)[C@H](CCC(N)=O)NC(=O)[C@@H](NC(=O)[C@H](CO)NC(=O)[C@H](CC(C)C)NC(=O)[C@H](CC(=O)O)NC(=O)[C@H](CO)NC(=O)[C@@H](NC(=O)[C@H](Cc1ccccc1)NC(=O)[C@@H](NC(=O)CNC(=O)[C@H](CCC(N)=O)NC(=O)C(C)(C)NC(=O)[C@@H](N)Cc1ccc(O)cc1)[C@@H](C)O)[C@@H](C)O)[C@@H](C)CC)C(=O)N[C@@H](CC(=O)O)C(=O)N[C@@H](CO)C(=O)N[C@@H](CCCNC(=N)N)C(=O)N[C@@H](C)C(=O)N[C@H](C(=O)N[C@@H](CCC(N)=O)C(=O)N[C@@H](CC(=O)O)C(=O)N[C@@H](Cc1ccccc1)C(=O)N[C@H](C(=O)N[C@@H](CCC(=O)O)C(=O)N[C@@H](Cc1c[nH]c2ccccc12)C(=O)N[C@@H](CC(C)C)C(=O)N[C@@H](CCCCN)C(=O)N[C@@H](C)C(=O)NCC(=O)NCC(=O)N1CCC[C@H]1C(=O)N[C@@H](CO)C(=O)N[C@@H](CO)C(=O)NCC(=O)N[C@@H](C)C(=O)N1CCC[C@H]1C(=O)N1CCC[C@H]1C(=O)N1CCC[C@H]1C(=O)N[C@@H](CO)C(N)=O)[C@@H](C)CC)C(C)C)C(=O)O [SEQ ID NO: 50, Y-Aib-Q-G-T-F-T-S-D-L-S-I-Q-K(yE-x53)-DSRAVQDFIEWLKAGGPSSGAPPPS-NH2] (H-Y[Aib]QGTFTSDLSIQK([γGlu-Palmitoyl])DSRAVQDFIEWLKAGGPSSGAPPPS-NH2) | 0.01 nM | 0.0479 nM | 1.72 nM
CCCCCCCCCCCCCCCC(=O)N[C@@H](CCC(=O)NCCCC[C@H](NC(=O)[C@H](CCC(N)=O)NC(=O)[C@@H](NC(=O)[C@H](CO)NC(=O)[C@H](CC(C)C)NC(=O)[C@H](CC(=O)O)NC(=O)[C@H](CO)NC(=O)[C@@H](NC(=O)[C@H](Cc1ccccc1)NC(=O)[C@@H](NC(=O)CNC(=O)[C@H](CCC(N)=O)NC(=O)C(C)(C)NC(=O)[C@@H](N)Cc1ccc(O)cc1)[C@@H](C)O)[C@@H](C)O)[C@@H](C)CC)C(=O)N[C@@H](CC(=O)O)C(=O)N[C@@H](CO)C(=O)N[C@@H](CCC(=O)O)C(=O)N[C@@H](C)C(=O)N[C@@H](C)C(=O)N[C@@H](CCC(N)=O)C(=O)N[C@@H](CC(=O)O)C(=O)N[C@@H](Cc1ccccc1)C(=O)N[C@H](C(=O)N[C@@H](CCC(=O)O)C(=O)N[C@@H](Cc1c[nH]c2ccccc12)C(=O)N[C@@H](CC(C)C)C(=O)N[C@@H](CCCCN)C(=O)N[C@@H](C)C(=O)NCC(=O)NCC(=O)N1CCC[C@H]1C(=O)N[C@@H](CO)C(=O)N[C@@H](CO)C(=O)NCC(=O)N[C@@H](C)C(=O)N1CCC[C@H]1C(=O)N1CCC[C@H]1C(=O)N1CCC[C@H]1C(=O)N[C@@H](CO)C(N)=O)[C@@H](C)CC)C(=O)O [SEQ ID NO: 48, Y-Aib-Q-G-T-F-T-S-D-L-S-I-Q-K(yE-x53)-DSEAAQDFIEWLKAGGPSSGAPPPS-NH2] (H-Y[Aib]QGTFTSDLSIQK([γGlu-Palmitoyl])DSEAAQDFIEWLKAGGPSSGAPPPS-NH2) | 0.0101 nM | 0.0158 nM | 0.478 nM
CCCCCCCCCCCCCCCC(=O)N[C@@H](CCC(=O)NCCCC[C@H](NC(=O)[C@H](CCC(N)=O)NC(=O)[C@H](CCCCN)NC(=O)[C@H](CO)NC(=O)[C@H](CC(C)C)NC(=O)[C@H](CC(=O)O)NC(=O)[C@H](CO)NC(=O)[C@@H](NC(=O)[C@H](Cc1ccccc1)NC(=O)[C@@H](NC(=O)CNC(=O)[C@H](CCC(N)=O)NC(=O)C(C)(C)NC(=O)[C@@H](N)Cc1ccc(O)cc1)[C@@H](C)O)[C@@H](C)O)C(=O)N[C@@H](CC(=O)O)C(=O)N[C@@H](CO)C(=O)N[C@@H](CCCCN)C(=O)N[C@@H](C)C(=O)N[C@@H](C)C(=O)N[C@@H](CCC(N)=O)C(=O)N[C@@H](CC(=O)O)C(=O)N[C@@H](Cc1ccccc1)C(=O)N[C@H](C(=O)N[C@@H](CCC(=O)O)C(=O)N[C@@H](Cc1c[nH]c2ccccc12)C(=O)N[C@@H](CC(C)C)C(=O)N[C@@H](CCCCN)C(=O)N[C@@H](C)C(=O)NCC(=O)NCC(=O)N1CCC[C@H]1C(=O)N[C@@H](CO)C(=O)N[C@@H](CO)C(=O)NCC(=O)N[C@@H](C)C(=O)N1CCC[C@H]1C(=O)N1CCC[C@H]1C(=O)N1CCC[C@H]1C(=O)N[C@@H](CO)C(N)=O)[C@@H](C)CC)C(=O)O [SEQ ID NO: 61, Y-Aib-Q-G-T-F-T-S-D-L-S-K-Q-K(yE-x53)-DSKAAQDFIEWLKAGGPSSGAPPPS-NH2] (H-Y[Aib]QGTFTSDLSKQK([γGlu-Palmitoyl])DSKAAQDFIEWLKAGGPSSGAPPPS-NH2) | 0.0024 nM | 0.0214 nM | 0.0061 nM
CCCCCCCCCCCCCCCC(=O)N[C@@H](CCC(=O)NCCCC[C@H](NC(=O)[C@H](CCC(N)=O)NC(=O)[C@@H](NC(=O)[C@H](CO)NC(=O)[C@H](CC(C)C)NC(=O)[C@H](CC(=O)O)NC(=O)[C@H](CO)NC(=O)[C@@H](NC(=O)[C@H](Cc1ccccc1)NC(=O)[C@@H](NC(=O)CNC(=O)[C@H](CCC(N)=O)NC(=O)C(C)(C)NC(=O)[C@@H](N)Cc1ccc(O)cc1)[C@@H](C)O)[C@@H](C)O)[C@@H](C)CC)C(=O)N[C@@H](CCC(=O)O)C(=O)N[C@@H](CCCCN)C(=O)N[C@@H](CCCNC(=N)N)C(=O)N[C@@H](Cc1ccc(O)cc1)C(=O)N[C@@H](C)C(=O)NC(C)(C)C(=O)N[C@@H](CCC(=O)O)C(=O)N[C@@H](Cc1ccccc1)C(=O)N[C@H](C(=O)N[C@@H](CCC(=O)O)C(=O)N[C@@H](Cc1c[nH]c2ccccc12)C(=O)N[C@@H](CC(C)C)C(=O)N[C@@H](CCCCN)C(=O)N[C@@H](CC(N)=O)C(=O)N[C@H](C(=O)NCC(=O)N1CCC[C@H]1C(=O)N[C@@H](CO)C(=O)N[C@@H](CO)C(=O)NCC(=O)N[C@@H](C)C(=O)N1CCC[C@H]1C(=O)N1CCC[C@H]1C(=O)N1CCC[C@H]1C(=O)N[C@@H](CO)C(N)=O)[C@@H](C)O)[C@@H](C)CC)C(=O)O [SEQ ID NO: 13, Y-Aib-Q-G-T-F-T-S-D-L-S-I-Q-K(yE-x53)-E-K-R-Y-A-Aib-EFIEWLKNTGPSSGAPPPSN H2] (H-Y[Aib]QGTFTSDLSIQK([γGlu-Palmitoyl])EKRYA[Aib]EFIEWLKNTGPSSGAPPPS-NH2) | 0.0141 nM | 0.0263 nM | 0.0202 nM

— patent publication US20140213513A1 (Sanofi, priority 2012, published 2014)
